Experimental data reported in patent US10214512B2, “Factor XIA inhibitors” (MERCK SHARP & DOHME CORP., priority 2015, dated 2019).

Tests used:
[1] = molecular target: purified Human plasma Kallikrein (Homo sapiens (Human), UniProt P03952); test: Kallikrein Assay; type: biochemical; conditions: purified Human plasma Kallikrein 0.5 nM; substrate Acetyl-K-P-R-AFC; 50 mM HEPES pH 7.4; Ki from IC50 by Cheng Prusoff
Experimental: The effectiveness of a compound of the present invention as an inhibitor of Kallikrein can be determined using a relevant purified serine protease, and an appropriate synthetic substrate. The rate of hydrolysis of the chromogenic or fluorogenic substrate by the relevant serine protease was measured both in the absence and presence of compounds of the present invention. Assays were conducted at rt or at 37° C. […] A decrease in the rate of fluorescence change in the presence of inhibitor is indicative of enzyme inhibition. Such methods are known to one skilled in the art. The results of this assay are expressed as the inhibitory constant, Ki.
Kallikrein determinations were made in 50 mM HEPES buffer at pH 7.4 containing 150 mM NaCl, 5 mM CaCl2, and 0.1% PEG 8000 (polyethylene glycol; Fisher Scientific). Determinations were made using purified Human plasma Kallikrein at a final concentration of 0.5 nM (Enzyme Research Laboratories) and the synthetic substrate, Acetyl-K-P-R-AFC (Sigma # C6608) at a concentration of […].
Times required to achieve equilibration between enzyme and inhibitor were determined in control experiments. […] IC50 was determined by inflection point from a four parameter logistic curve fit. Ki was calculated using the Cheng Prusoff equation, Ki=IC50/(1+([S]/Km)).

[2] = molecular target: purified human Factor XIa (Homo sapiens (Human), UniProt P03951); test: Factor XIa Assay; type: biochemical; conditions: purified human Factor XIa 40 pM; substrate Z-Gly-Pro-Arg-AFC 100 μM; 50 mM HEPES pH 7.4; read-out: Human FXIa Ki
purified human Factor XIa, sequence (P03951 388-625): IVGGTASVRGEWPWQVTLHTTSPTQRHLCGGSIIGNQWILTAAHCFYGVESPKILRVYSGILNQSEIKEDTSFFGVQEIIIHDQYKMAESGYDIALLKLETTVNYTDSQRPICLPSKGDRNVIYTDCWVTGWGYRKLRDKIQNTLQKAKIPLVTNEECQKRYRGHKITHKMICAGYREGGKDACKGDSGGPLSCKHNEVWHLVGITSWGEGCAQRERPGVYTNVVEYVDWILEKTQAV
purified human Factor XIa, sequence (P03951 19-387 partner): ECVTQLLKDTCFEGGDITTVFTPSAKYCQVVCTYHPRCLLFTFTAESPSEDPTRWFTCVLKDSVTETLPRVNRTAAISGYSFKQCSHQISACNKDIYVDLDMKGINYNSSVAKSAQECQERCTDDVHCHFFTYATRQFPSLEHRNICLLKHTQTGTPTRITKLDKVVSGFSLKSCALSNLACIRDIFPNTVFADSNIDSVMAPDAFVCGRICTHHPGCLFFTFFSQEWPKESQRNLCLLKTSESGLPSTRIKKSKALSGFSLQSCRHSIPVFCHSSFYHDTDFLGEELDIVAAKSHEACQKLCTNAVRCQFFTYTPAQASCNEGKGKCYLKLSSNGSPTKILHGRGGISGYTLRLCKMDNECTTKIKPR
In short: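 Purified human FXIa at 40 pM final with fluorogenic Z-Gly-Pro-Arg-AFC at 100 μM, in 50 mM HEPES pH 7.4, 150 mM NaCl, 5 mM CaCl2, 0.1% PEG 8000, at rt or 37° C. Initial velocities measured after enzyme–inhibitor equilibration; Ki derived from Vo/Vi versus [I] assuming competitive inhibition.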

purified Human plasma Kallikrein, sequence (P03952 391-638): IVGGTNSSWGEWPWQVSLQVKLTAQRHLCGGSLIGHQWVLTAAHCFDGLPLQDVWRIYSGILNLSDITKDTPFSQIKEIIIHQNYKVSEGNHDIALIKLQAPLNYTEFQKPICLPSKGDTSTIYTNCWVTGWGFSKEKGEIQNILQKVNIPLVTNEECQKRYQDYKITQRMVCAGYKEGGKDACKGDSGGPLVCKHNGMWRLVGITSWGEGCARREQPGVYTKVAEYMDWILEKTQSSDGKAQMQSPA
purified Human plasma Kallikrein, sequence (P03952 20-390 partner): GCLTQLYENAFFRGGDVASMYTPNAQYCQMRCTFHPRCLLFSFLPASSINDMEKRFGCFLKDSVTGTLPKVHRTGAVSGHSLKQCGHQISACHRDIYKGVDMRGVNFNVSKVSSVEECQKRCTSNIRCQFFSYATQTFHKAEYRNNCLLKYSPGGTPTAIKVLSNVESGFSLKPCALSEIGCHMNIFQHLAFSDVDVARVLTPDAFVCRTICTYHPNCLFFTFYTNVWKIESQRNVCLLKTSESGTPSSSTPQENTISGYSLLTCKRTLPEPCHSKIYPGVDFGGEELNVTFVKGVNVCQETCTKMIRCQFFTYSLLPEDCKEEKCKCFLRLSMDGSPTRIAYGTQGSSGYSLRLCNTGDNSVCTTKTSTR

Row | SMILES | Ki [1] [nM] | Ki [2] [nM]
1 | O=C1CCCCC(c2ccc(-c3cc(Cl)ccc3-n3cnnn3)c[n+]2[O-])c2nc(c[nH]2)-c2cc(F)ccc2N1 (single isomer, unassigned) [Example 11-a, (Z)-5-(5-Chloro-2-(1H-tetrazol-1-yl)phenyl)-2-(2^5-fluoro-4-oxo-1^1h-3-aza-1(4,2)-imidazola-2(1,2)-benzenacyclononaphane-9-yl)pyridine 1-oxide] | 2.12 | 0.22
2 | COC(=O)Nc1ccc2c(c1)NC(=O)CCCCC(c1ccc(-c3c(F)ccc(Cl)c3F)c[n+]1[O-])c1cccc-2c1 (single isomer, unassigned) [Example 13-a, 5-(3-Chloro-2,6-difluorophenyl)-2-(2^4-((methoxycarbonyl)amino)-4-oxo-3-aza-1(1,3),2(1,2)-dibenzenacyclononaphane-9-yl)pyridine 1-oxide] | 1.55 | 0.36
3 | COC(=O)Nc1ccc2c(c1)NC(=O)CCCC[C@H](c1ccc(-c3cc(Cl)ccc3OC(F)(F)F)c[n+]1[O-])c1cccc-2c1 (single isomer, unassigned) [Example 30] | 6.77 | 0.38
4 | COC(=O)Nc1ccc2c(c1)NC(=O)CCCC[C@H](c1ccc(-c3cc(Cl)ccc3C#N)c[n+]1[O-])c1cccc-2c1 (single isomer, unassigned) [Example 31] | 2.68 | 0.8
5 | COC(=O)Nc1ccc2c(c1)NC(=O)CCCC[C@H](c1ccc(-c3cc(Cl)ccc3C(F)(F)F)c[n+]1[O-])c1cccc-2c1 (single isomer, unassigned) [Example 32] | 2.95 | 0.83
6 | COC(=O)Nc1ccc2c(c1)NC(=O)CCCC[C@H](c1ccc(-c3cc(Cl)ccc3OC(F)F)c[n+]1[O-])c1cccc-2c1 (single isomer, unassigned) [Example 33] | 1.67 | 0.28
7 | COC(=O)Nc1ccc2c(c1)NC(=O)CCCCC(c1ccc(-c3cc(Cl)ccc3-n3cc(C(F)F)nn3)c[n+]1[O-])c1cccc-2c1 (single isomer, unassigned) [Example 36-a, 5-(5-chloro-2-(4-(difluoromethyl)-1H-1,2,3-triazol-1-yl)phenyl)-2-(2^4-((methoxycarbonyl)amino)-4-oxo-3-aza-1(1,3),2(1,2)-dibenzenacyclononaphane-9-yl)pyridine 1-oxide] | 0.81 | 0.26
8 | COC(=O)Nc1ccc2c(c1)NC(=O)CCCC[C@H](c1ccc(-c3cc(Cl)ccc3-n3cc(Cl)nn3)c[n+]1[O-])c1cccc-2c1 (single isomer, unassigned) [Example 37] | 0.36 | 0.13
9 | COC(=O)Nc1ccc2c(c1)NC(=O)CCCC[C@H](c1ccc(-c3cc(Cl)ccc3-n3cc(C(F)(F)F)cn3)c[n+]1[O-])c1cccc-2c1 (single isomer, unassigned) [Example 40] | 13.7 | 0.46
10 | COC(=O)Nc1ccc2c(c1)NC(=O)CCCC[C@H](c1ccc(-c3cc(Cl)ccc3-n3cc(C#N)cn3)c[n+]1[O-])c1cccc-2c1 (single isomer, unassigned) [Example 41] | 6.27 | 0.19
11 | COC(=O)Nc1ccc2c(c1)NC(=O)CCCC[C@H](c1ccc(-c3cc(Cl)ccc3-c3cnn(C(F)F)c3)c[n+]1[O-])c1cccc-2c1 (single isomer, unassigned) [Example 42] | 3.1 | 0.44
12 | Nc1ccc2c(c1)NC(=O)CCCCC(c1ccc(-c3c(F)ccc(Cl)c3F)c[n+]1[O-])c1cccc-2c1 (single isomer, unassigned) [Example 43-a, 2-(2^4-amino-4-oxo-3-aza-1(1,3),2(1,2)-dinenzenacyclononaphane-9-yl)-5-(3-chloro-2,6-difluorophenyl)pyridine 1-oxide] | 7 | 1.7
13 | COC(=O)Nc1ccc2c(c1)NC(=O)C(C)CCCC(c1ccc(-c3c(F)ccc(Cl)c3F)c[n+]1[O-])c1cccc-2c1 (single isomer, unassigned) [Example 50-a, 5-(3-chloro-2,6-difluorophenyl)-2-(2^4-((methoxycarbonyl)amino)-5-methyl-4-oxo-3-aza-1(1,3),2(1,2)-dinenzenacyclononaphane-9-yl)pyridine 1-oxide] | 1.89 | 0.53
14 | COC(=O)Nc1ccc2c(c1)NC(=O)C(C)CCCC(c1ccc(-c3c(F)ccc(Cl)c3F)c[n+]1[O-])c1cccc-2c1 (single isomer, unassigned) [Example 50-b, 5-(3-chloro-2,6-difluorophenyl)-2-(2^4-((methoxycarbonyl)amino)-5-methyl-4-oxo-3-aza-1(1,3),2(1,2)-dinenzenacyclononaphane-9-yl)pyridine 1-oxide] | 10.6 | 3.5
15 | COC(=O)Nc1ccc2c(c1)NC(=O)C[C@H]1C[C@@H]1C[C@H](c1ccc(-c3c(F)ccc(Cl)c3F)c[n+]1[O-])c1cccc-2c1 (single isomer, unassigned) [Example 66] | 10.2 | 2.1
16 | COC(=O)Nc1ccc2c(c1)NC(=O)CCCC[C@H](c1ccc(-c3c(F)ccc(Cl)c3F)c[n+]1[O-])c1cc(F)c(F)c-2c1 (single isomer, unassigned) [Example 69] | 6.79 | 1.87
17 | COC(=O)Nc1ccc2c(c1)NC(=O)CCCC[C@H](c1ccc(-c3c(F)ccc(Cl)c3F)c[n+]1[O-])c1cc-2ncc1F (single isomer, unassigned) [Example 72] | 2.96 | 0.5
18 | COC(=O)Nc1ccc2c(c1)NC(=O)CCCC[C@H](c1ccc(-c3c(F)ccc(Cl)c3F)c[n+]1[O-])c1cc-2ccn1 (single isomer, unassigned) [Example 73] | 1.08 | 0.34
19 | COC(=O)Nc1ccc2c(c1)NC(=O)CCCC[C@H](c1ccc(-c3c(F)ccc(Cl)c3F)c[n+]1[O-])c1cc-2ncn1 (single isomer, unassigned) [Example 75] | 8.42 | 2.7
20 | O=C(C1CCCCC(c2ccc(-c3cc(Cl)ccc3-n3cnnn3)c[n+]2[O-])c2cccc(c2)-c2cc(F)ccc2N1)N1CCCC1 (single isomer, unassigned) [Example 79-b, 5-(5-Chloro-2-(1H-tetrazol-1-yl)phenyl)-2-(2^5-fluoro-4-(pyrrolidine-1-carbonyl)-3-aza-1(1,3),2(1,2)-dibenzenacyclononaphane-9-yl)pyridine 1-oxide] | 119 | 0.24
21 | O=C(C1CCCCC(c2ccc(-c3cc(Cl)ccc3-n3cnnn3)c[n+]2[O-])c2cccc(c2)-c2cc(F)ccc2N1)N1CCCC1 (single isomer, unassigned) [Example 79-c, 5-(5-Chloro-2-(1H-tetrazol-1-yl)phenyl)-2-(2^5-fluoro-4-(pyrrolidine-1-carbonyl)-3-aza-1(1,3),2(1,2)-dibenzenacyclononaphane-9-yl)pyridine 1-oxide] | 2920 | 52.2
22 | O=C(C1CCCCC(c2ccc(-c3cc(Cl)ccc3-n3cnnn3)c[n+]2[O-])c2cccc(c2)-c2cc(F)ccc2N1)N1CCCC1 (single isomer, unassigned) [Example 79-d, 5-(5-Chloro-2-(1H-tetrazol-1-yl)phenyl)-2-(2^5-fluoro-4-(pyrrolidine-1-carbonyl)-3-aza-1(1,3),2(1,2)-dibenzenacyclononaphane-9-yl)pyridine 1-oxide] | 2170 | 30.3
23 | COC(=O)Nc1ccc2c(c1)NC(=O)CCCCC(c1ccc(-c3cc(Cl)ccc3-n3cnnn3)c[n+]1[O-])c1cc-2[n+]([O-])cc1F (single isomer, unassigned) [Example 81-a, 9-(5-(5-chloro-2-(1h-tetrazol-1-yl)phenyl)-1-oxidopyridin-2-yl)-1^5-fluoro-2^4-((methoxycarbonyl)amino)-4-oxo-3-aza-1(2,4)-pyridin-1-iuma-2(1,2)-benzenacyclononaphane 1^1-oxide] | 0.46 | 0.14
24 | COC(=O)Nc1cc(F)c2c(c1)NC(=O)C(C)CCCC(c1ccc(-c3c(F)ccc(Cl)c3F)c[n+]1[O-])c1cccc-2c1 (single isomer, unassigned) [Example 85-b, 5-(3-Chloro-2,6-difluorophenyl)-2-(2^6-fluoro-2^4-((methoxycarbonyl)amino)-5-methyl-4-oxo-3-aza-1(1,3),2(1,2)-dibenzenacyclononaphane-9-yl)pyridine 1-oxide] | 15.2 | 6
25 | COC(=O)Nc1cc(F)c2c(c1)NC(=O)C(C)CCCC(c1ccc(-c3c(F)ccc(Cl)c3F)c[n+]1[O-])c1cccc-2c1 (single isomer, unassigned) [Example 85-c, 5-(3-Chloro-2,6-difluorophenyl)-2-(2^6-fluoro-2^4-((methoxycarbonyl)amino)-5-methyl-4-oxo-3-aza-1(1,3),2(1,2)-dibenzenacyclononaphane-9-yl)pyridine 1-oxide] | 2.59 | 0.97
